Consider one compound from patent publication US10385057B2, “Pyrazole compounds and methods of making and using same” (Lundbeck La Jolla Research Center, Inc., priority 2015, dated 2019).

Common to all, as to assay type: biochemical
Experiment [1] concerns the target T1, FAAH (Homo sapiens, UniProt O00519).
T1 construct: human prefrontal cortex or cell membrane fractions for human assays; from tissue
T1 sequence (O00519 1-579): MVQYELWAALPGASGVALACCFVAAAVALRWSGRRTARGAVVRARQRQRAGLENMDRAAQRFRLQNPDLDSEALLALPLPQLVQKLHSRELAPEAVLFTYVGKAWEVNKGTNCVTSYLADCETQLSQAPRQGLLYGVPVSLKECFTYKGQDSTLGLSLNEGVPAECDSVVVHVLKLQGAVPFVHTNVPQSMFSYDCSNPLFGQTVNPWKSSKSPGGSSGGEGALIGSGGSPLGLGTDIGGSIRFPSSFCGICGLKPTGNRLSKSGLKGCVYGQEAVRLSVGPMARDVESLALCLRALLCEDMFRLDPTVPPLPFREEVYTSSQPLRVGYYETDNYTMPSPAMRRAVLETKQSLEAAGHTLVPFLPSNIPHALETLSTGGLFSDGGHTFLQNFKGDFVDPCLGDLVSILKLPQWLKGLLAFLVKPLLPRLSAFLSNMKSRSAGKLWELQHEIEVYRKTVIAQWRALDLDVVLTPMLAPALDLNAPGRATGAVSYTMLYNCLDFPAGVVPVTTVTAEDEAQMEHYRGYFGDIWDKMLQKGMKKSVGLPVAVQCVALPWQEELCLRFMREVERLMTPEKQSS
Briefly: In vitro competitive activity-based protein profiling, human FAAH. The procedure:
(§1) In Vitro Competitive Activity-Based Protein Profiling.
(§2) Proteomes (mouse brain membrane fraction or cell lysates for mouse assays; human prefrontal cortex or cell membrane fractions for human assays) (50 μL, 1.0 mg/mL total protein concentration) were preincubated with varying concentrations of inhibitors at 37° C. After 30 min, FP-Rh or HT-01 (1.0 μL, 50 μM in DMSO) was added and the mixture was incubated for another 30 min at 37° C. Reactions were quenched with SDS loading buffer (15 μL—4×) and run on SDS-PAGE. Following gel imaging, serine hydrolase activity was determined by measuring fluorescent intensity of gel bands corresponding to MAGL and FAAH using ImageJ 1.43u software.

Experiment [2] deals with T2, MAGL (Mus musculus, UniProt O35678).
T2 construct: mouse brain membrane fraction or cell lysates for mouse assays; from tissue
T2 sequence (O35678 1-303): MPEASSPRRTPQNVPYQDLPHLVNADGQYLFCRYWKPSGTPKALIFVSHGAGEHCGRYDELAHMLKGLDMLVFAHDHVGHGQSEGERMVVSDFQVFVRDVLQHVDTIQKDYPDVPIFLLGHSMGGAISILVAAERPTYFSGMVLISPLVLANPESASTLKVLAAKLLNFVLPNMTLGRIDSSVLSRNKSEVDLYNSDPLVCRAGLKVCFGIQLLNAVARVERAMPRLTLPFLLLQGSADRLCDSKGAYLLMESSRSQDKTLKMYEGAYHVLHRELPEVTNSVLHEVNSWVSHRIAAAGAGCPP
Briefly: In vitro competitive activity-based protein profiling, mouse MAGL. Particulars: 1 μM, read-out: MAGL % inh. 1 μM (mouse). The method, boiled down:
(§3)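 Mouse brain membranes or cell lysates (mouse) and human prefrontal cortex or cell membrane fractions (human), 1.0 mg/mL protein, preincubated with inhibitor 30 min at 37 °C, then FP-Rh or HT-01 probe 30 min at 37 °C. SDS-PAGE; MAGL and FAAH activity from in-gel fluorescence band intensity.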

Experiment [3] has as its target T3, MAGL (Homo sapiens, UniProt Q99685).
T3 construct: human prefrontal cortex or cell membrane fractions for human assays; from tissue
T3 sequence (Q99685 1-303): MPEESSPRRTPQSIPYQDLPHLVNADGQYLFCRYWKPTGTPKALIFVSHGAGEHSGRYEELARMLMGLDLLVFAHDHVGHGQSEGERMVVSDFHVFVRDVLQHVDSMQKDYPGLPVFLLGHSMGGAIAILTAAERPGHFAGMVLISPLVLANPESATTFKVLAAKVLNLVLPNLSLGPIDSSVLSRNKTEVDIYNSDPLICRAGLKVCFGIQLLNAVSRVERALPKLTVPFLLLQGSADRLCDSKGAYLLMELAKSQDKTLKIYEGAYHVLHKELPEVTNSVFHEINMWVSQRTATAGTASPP
Briefly: In vitro competitive activity-based protein profiling, human MAGL. The procedure: as §1, §2

Experiment [4] addresses T4, FAAH (Mus musculus, UniProt O08914).
T4 construct: mouse brain membrane fraction or cell lysates for mouse assays; from tissue
T4 sequence (O08914 1-579): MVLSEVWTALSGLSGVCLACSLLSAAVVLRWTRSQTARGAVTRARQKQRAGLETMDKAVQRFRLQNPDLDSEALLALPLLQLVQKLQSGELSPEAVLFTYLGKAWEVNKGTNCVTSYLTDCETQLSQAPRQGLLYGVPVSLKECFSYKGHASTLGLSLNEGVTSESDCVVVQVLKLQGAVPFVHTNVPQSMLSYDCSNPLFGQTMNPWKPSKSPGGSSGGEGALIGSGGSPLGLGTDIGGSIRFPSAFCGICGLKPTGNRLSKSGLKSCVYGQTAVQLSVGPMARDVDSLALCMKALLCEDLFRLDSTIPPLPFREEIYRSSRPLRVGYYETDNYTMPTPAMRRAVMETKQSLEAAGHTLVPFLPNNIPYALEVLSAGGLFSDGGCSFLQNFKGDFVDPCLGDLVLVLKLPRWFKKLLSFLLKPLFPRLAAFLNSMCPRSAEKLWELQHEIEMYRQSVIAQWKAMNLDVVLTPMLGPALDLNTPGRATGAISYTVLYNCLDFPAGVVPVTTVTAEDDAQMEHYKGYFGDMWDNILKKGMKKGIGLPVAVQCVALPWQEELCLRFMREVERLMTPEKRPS
Put plainly: In vitro competitive activity-based protein profiling, mouse FAAH. As to conditions: 1 μM, read-out: FAAH % inh. 1 μM (mouse). The method in brief: as §3

A value given as a limit tells only on which side of the number the result lay.

On to `CN(Cc1ccc(N2CCCC2)cc1C(F)(F)F)[C@@H]1C[C@@H]2CN(C(=O)n3cc(C(N)=O)cn3)C[C@@H]2C1` [Example 220, 1-(cis-5-(methyl(4-(pyrrolidin-1-yl)-2-(trifluoromethyl)benzyl)amino)octahydrocyclopenta[c]pyrrole-2-carbonyl)-1H-pyrazole-4-carboxamide], for which the inhibition at 1 µM was in the range of 0 to 25% on FAAH [1] (1 μM, read-out: FAAH % inh. 1 μM (human)); 0 to 25% on MAGL [2]; 0 to 25% at MAGL [3] (1 μM, read-out: MAGL % inh. 1 μM (human)); 0 to 25% on FAAH [4]. Also, the inhibition at 10 µM was at least 75% on FAAH [1] (10 μM, read-out: FAAH % inh. 10 μM (human)) and at least 75% on MAGL [3] (10 μM, read-out: MAGL % inh. 10 μM (human)).
